# Columns and labels:
# [1] = system: Boophilus microplus larvae; assay: Test for acaricidal activity: treated filter paper envelope, larval mortality; format: in vivo; details: Rhipicephalus microplus, larvae exposed 48 hours at 25° C.; for mortality at 0.5 µg/cm2: dosage 0.5 μg/cm^2 on filter paper
# Protocol: Test for Acaricidal Activity
# A dose of 10 μg/cm^2 is created by evenly pipetting 0.5 ml of a 1 mg/ml solution of the test compound in a suitable solvent such as acetone or ethanol onto a Whatman No. 1 (Trade Mark) filter paper cut to a size of 8×6.25 cm. When dry, the paper is folded in half, sealed on two sides using a crimping device and placed in a Kilner jar containing a cotton wool pad dampened with water. The jar is then sealed and placed at 25° C. for 24 hours. Next, approximately 50 Boophilus microplus larvae are introduced into the treated paper envelope which is then crimped along the third side to effect a complete seal. The paper envelope is returned to the Kilner jar, which is sealed and placed at 25° C. for a further 48 hours. The papers are then removed and mortality assessed. Negative controls are provided by treating an appropriately cut filter paper with 0.5 ml of solvent only and following the same procedure. Activity at other doses is obtained by varying the concentration of the test solution. The table below illustrates the in vivo activity of a selection of the compounds of the invention against Boophilus microplus larvae. Dosages are expressed in μg/cm^2.
# [2] = system: Adult flies (Stomoxys calcitrans); assay: Test for insecticidal activity: topical application to adult flies, mortality after 24 hours; format: in vivo; details: 1 μl acetone solution applied to thorax of fly; mortality assessed 24 hours after dosing
# Protocol: Test for Insecticidal Activity Adult flies (Stomoxys calcitrans) are collected and anaesthetized using CO2- 1 μl of an acetone solution containing the test substance is applied directly to the thorax of the fly. The flies are then placed carefully into a 50 ml tube covered with damp gauze to recover from the CO2. Negative controls have 1 μl of acetone dispensed onto them. Mortality is assessed 24 hours after dosing. The table below illustrates the in vivo activity of a selection of the substances of the invention against such flies. Dosages required to produce 100% mortality are expressed in μg/fly.
SMILES,mortality at 0.5 µg/cm2 [1],Dosage required to produce 100% mortality [2],mortality at 1 µg/cm2 ([1]; dosage 1 μg/cm^2 on filter paper)
"N#Cc1cn(-c2c(Cl)cc(C(F)(F)F)cc2Cl)cc1C1CC1(Br)Br (centres unmarked) [Example 3, 3-Cyano-4-(2,2-dibromocyclopropyl)-1-(2,6-dichloro-4-trifluoromethylphenyl)pyrrole]",100%,0.005 μg/fly,–
"FC(F)(F)c1cc(Cl)c(-n2cc(C3CC3(Br)Br)c3ccccc32)c(Cl)c1 (centres unmarked) [Example 4, 3-(2,2-Dibromocyclopropyl)-1-(2,6-dichloro-4-trifluoromethylphenyl)indole]",–,0.05 μg/fly,–
"FC(F)(F)c1cc(Cl)c(-n2cc(C3CC3(Br)Br)nn2)c(Cl)c1 (centres unmarked) [Example 1, 4-(2,2-Dibromocyclopropyl)-1-(2,6-dichloro-4-trifluoromethylphenyl)-1,2,3-triazole]",90%,0.005 μg/fly,–
"FC(F)(F)c1cc(Cl)c(-n2cnc(C3CC3(Br)Br)n2)c(Cl)c1 (centres unmarked) [Example 6, 3-(2,2-Dibromocyclopropyl)-1-(2,6-dichloro-4-trifluoromethylphenyl)-1,2,4-triazole]",–,0.01 μg/fly,–
"FC(F)(F)c1cc(Cl)c(-n2cc(C3CC3(Cl)Cl)nn2)c(Cl)c1 (centres unmarked) [Example 2, 4-(2,2-Dichlorocyclopropyl)-1-(2,6-dichloro-4-trifluoromethylphenyl)-1,2,3-triazole]",–,0.01 μg/fly,100%
